Test results from ChEMBL document CHEMBL4342427, “A new chemotype with promise against Trypanosoma cruzi” (Bioorg Med Chem Lett, 2020).
In brackets after ≈: the same amount, converted by molar mass. Activity calls are given as the source filed them. The calls are words filed in the database; no cut-off is given here.

Experiments:
Trypanosoma cruzi [1] = assay: Antitrypanosomal activity against Trypanosoma cruzi Tulahuen C4 trypomastigotes infected in rat L6 cells measured after 96 hrs by inverted microscopy analysis; assay type: functional, organism-based; details: Tulahuen C4, L6, 96 h
[2] = Ratio of IC50 for antiprotozoal activity against Trypanosoma brucei rhodesiense STIB900 […] assessed as growth inhibition after 72 hrs by Alamar Blue dye-based fluorometric analysis to IC50 for antitrypanosomal activity against Trypanosoma cruzi Tulahuen C4 trypomastigotes infected in rat L6 cells measured after 96 hrs by inverted microscopy analysis; assay type: functional
HEK-293T = assay: Cytotoxicity against human HEK293T cells assessed as cell growth inhibition; assay type: cell-based
Leishmania donovani = assay: Antileishmanial activity against Leishmania donovani MHOM/ET/67/L82 amastigotes assessed as growth inhibition after 72 hrs by plate reader based Alamar blue assay; assay type: functional, organism-based; details: MHOM/ET/67/L82, 72 h
[3] = Kinetic solubility in phosphate buffer at pH 6.5 by nephelometry; details: read-out: Kinetic_solubility
Plasmodium falciparum = assay: Antiprotozoal activity against Plasmodium falciparum NF54 assessed as reduction in [3H]hypoxanthine incorporation preincubated for 48 hrs followed by [3H]hypoxanthine addition and measured after 24 hrs by liquid scintillation counting method; assay type: functional, organism-based
[4] = Cytotoxicity against human HC04 cells assessed as cell growth inhibition; assay type: cell-based
[5] = Kinetic solubility in 0.01M HCl at pH 2 by nephelometry; details: read-out: Kinetic_solubility
[6] = Intrinsic clearance in human liver microsomes assessed per mg protein measured up to 60 mins in presence of NADPH; assay type: ADME, Microsome; details: for microsomal CLint: liver microsomes
U2OS = assay: Cytotoxicity against human U2OS cells assessed as cell growth inhibition; assay type: cell-based
[7] = Ratio of IC50 for antiprotozoal activity against Plasmodium falciparum NF54 assessed as reduction in [3H]hypoxanthine incorporation preincubated for 48 hrs followed by [3H]hypoxanthine addition and measured after 24 hrs by liquid scintillation counting method to IC50 for antitrypanosomal activity against Trypanosoma cruzi Tulahuen C4 trypomastigotes infected in rat L6 cells measured after 96 hrs …; assay type: functional
[8] = Intrinsic clearance in mouse liver microsomes assessed per mg protein measured up to 60 mins in presence of NADPH; assay type: ADME, Microsome; details: 1 h
[9] = system: Trypanosoma brucei rhodesiense; assay: Antiprotozoal activity against Trypanosoma brucei rhodesiense STIB900 […] assessed as growth inhibition after 72 hrs by Alamar Blue dye-based fluorometric analysis; assay type: functional, organism-based; details: STIB900, 72 h
[10] = Protein binding in human plasma by HPLC analysis; assay type: ADME, cell-free
[11] = n-octanol/aqueous buffer distribution coefficient, log D of compound at pH 7.4 by HPLC analysis; assay type: physicochemical
Toxoplasma gondii = assay: Antiparasitic activity against Toxoplasma gondii RH transfected with fluorescent transgene dTom; assay type: functional, organism-based
HFF = assay: Cytotoxicity against human HFF cells assessed as cell growth inhibition; assay type: cell-based
Trypanosoma cruzi [12] = assay: Antitrypanosomal activity against Trypanosoma cruzi Tulahuen 20A trypomastigote expressing GFP infected in BALB/c mouse cardiomyocytes assessed as reduction in parasitemia measured after 72 hrs by fluorescence assay; assay type: functional, organism-based
[13] = biological target: T1, Sterol 14-alpha demethylase (Trypanosoma cruzi (strain CL Brener), UniProt Q7Z1V1); assay: (§1) Binding affinity to full length Trypanosoma cruzi Tulahuen C4 C-terminal His-tagged CYP51 expressed in Escherichia coli HMS174 (DE3) assessed as induction of shift in Soret band by spectrophotometry
T1 sequence (Q7Z1V1 whole entry): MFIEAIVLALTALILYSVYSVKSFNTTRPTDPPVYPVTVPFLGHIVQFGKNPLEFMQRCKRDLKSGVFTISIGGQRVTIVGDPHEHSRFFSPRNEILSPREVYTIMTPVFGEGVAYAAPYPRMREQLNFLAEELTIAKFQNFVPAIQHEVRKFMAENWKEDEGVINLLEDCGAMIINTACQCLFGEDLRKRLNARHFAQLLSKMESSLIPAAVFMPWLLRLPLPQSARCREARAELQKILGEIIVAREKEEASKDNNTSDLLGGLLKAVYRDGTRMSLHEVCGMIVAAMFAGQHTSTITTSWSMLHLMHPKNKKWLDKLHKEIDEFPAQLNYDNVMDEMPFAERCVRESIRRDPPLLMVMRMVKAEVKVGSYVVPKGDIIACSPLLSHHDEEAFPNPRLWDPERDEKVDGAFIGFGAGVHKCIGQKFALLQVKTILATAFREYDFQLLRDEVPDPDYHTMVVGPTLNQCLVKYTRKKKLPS

[14] = biological target: T1, Sterol 14-alpha demethylase; assay: Inhibition of Trypanosoma cruzi Tulahuen C4 CYP51 expressed in Escherichia coli HMS174 using [3H]-sterol as substrate in presence of NADPH by reversed phase HPLC analysis
[15] = biological target: Sterol 14-alpha demethylase (Trypanosoma cruzi (strain CL Brener)) (UniProt Q7Z1V1); assay: as §1
Sterol 14-alpha demethylase (Trypanosoma cruzi (strain CL Brener)), sequence (Q7Z1V1 whole entry, looked up): as the sequence (Q7Z1V1 whole entry) above

CN1CCN(c2ccc(C(=O)NCc3ccc(C(=O)Nc4cccnc4)cc3)cc2)CC1
IC50 (Trypanosoma cruzi [1]): 120 µM

O=C(Nc1cccnc1)c1ccc(CNS(=O)(=O)c2ccc(N3CCC3)cc2)cc1
IC50 (Trypanosoma cruzi [1]): 8.3 µM

CN1CCN(c2ccc(S(=O)(=O)NCc3ccc(C(=O)Nc4cnccn4)cc3)cc2)CC1
IC50 (Trypanosoma cruzi [1]): 17 µM

O=C(Nc1cccnc1)c1ccc(CNS(=O)(=O)c2ccc(N3CCC(O)CC3)cc2)cc1
IC50 (Trypanosoma cruzi [1]): 120 µM

O=C(Nc1cccnc1)c1ccc(CNS(=O)(=O)c2ccc(N3CCOCC3)cc2)cc1
Ratio IC50 [2]: 10
IC50 (HEK-293T): 0.95 µM
IC50 (Leishmania donovani): 180 µM
IC50 (Trypanosoma cruzi [1]): 2.1 µM
solubility kinetic [3]: 12.5 to 25 µg/mL (≈ 27.6 to 55.2 µM)
IC50 (Plasmodium falciparum): 21 µM
IC50 [4]: > 50 µM
solubility kinetic [5]: 50 to 100 µg/mL (≈ 110 to 221 µM)
microsomal CLint [6]: 69 µL/min/mg
IC50 (U2OS): 0.16 µM
Ratio IC50 [7]: 10
CLint [8]: 200 µL/min/mg
IC50 [9]: 25 µM
PPB [10]: 76.2%
logD [11]: 2.6
IC50 (Toxoplasma gondii): > 100 µM
IC50 (HFF): 2 µM

C[C@@H]1CN(c2ccc(S(=O)(=O)NCc3ccc(C(=O)Nc4cccnc4)cc3)cc2)C[C@H](C)N1
IC50 (Trypanosoma cruzi [1]): 130 µM

CC[C@@H]([C@H](C)O)n1ncn(-c2ccc(N3CCN(c4ccc(OC[C@@H]5CO[C@@](Cn6cncn6)(c6ccc(F)cc6F)C5)cc4)CC3)cc2)c1=O [POSACONAZOLE]
IC50 (Trypanosoma cruzi [12]): 0.005 µM

CCOC(=O)N1CCN(c2ccc(S(=O)(=O)NCc3ccc(C(=O)Nc4cccnc4)cc3)cc2)CC1
IC50 (Trypanosoma cruzi [1]): 46 µM

CN1CCN(c2ccc(S(=O)(=O)NCc3ccc(C(=O)Nc4cccnc4)cc3)cc2)CC1
Kd [13]: 1.32 µM
IC50 (HEK-293T): 0.36 µM
IC50 (Leishmania donovani): > 200 µM
IC50 [14]: 49 µM
IC50 (Trypanosoma cruzi [1]): 0.007 µM
solubility kinetic [3]: 25 to 50 µg/mL (≈ 53.7 to 107 µM)
IC50 (Plasmodium falciparum): 10 µM
IC50 [4]: > 50 µM
microsomal CLint [6]: 45 µL/min/mg
IC50 (U2OS): 0.15 µM
CLint [8]: 112 µL/min/mg
IC50 [9]: 32 µM
PPB [10]: 85.2%
logD [11]: 2.8
IC50 (Toxoplasma gondii): > 100 µM
IC50 (HFF): > 50 µM

CN1CCN(c2ccc(S(=O)(=O)NCc3ccc(C(=O)Nc4ccc(C#N)nc4)cc3)cc2)CC1
IC50 (Trypanosoma cruzi [1]): 100 µM

Cc1ncccc1NC(=O)c1ccc(CNS(=O)(=O)c2ccc(N3CCN(C)CC3)cc2)cc1
Activity [15]: inactive
IC50 [14]: 487 µM
IC50 (Trypanosoma cruzi [1]): 65 µM

Cc1ccc(NC(=O)c2ccc(CNS(=O)(=O)c3ccc(N4CCN(C)CC4)cc3)cc2)cn1
IC50 (Trypanosoma cruzi [1]): 88 µM

CN1CCN(c2ccc(S(=O)(=O)NCc3ccc(C(=O)Nc4ccncc4)cc3)cc2)CC1
IC50 (Trypanosoma cruzi [1]): 28 µM

CN1CCN(c2ccc(S(=O)(=O)NCc3ccc(C(=O)Nc4cncnc4)cc3)cc2)CC1
IC50 (Trypanosoma cruzi [1]): 96 µM

O=C(Nc1cccnc1)c1ccc(CNS(=O)(=O)c2ccc(N3CCNCC3)cc2)cc1
IC50 (Trypanosoma cruzi [1]): 69 µM

Cc1ccc(NC(=O)c2ccc(CNS(=O)(=O)c3ccc(N4CCN(C)CC4)cc3)cc2)c(C)n1
IC50 (Trypanosoma cruzi [1]): 110 µM

O=C(Nc1cccnc1)c1ccc(CNS(=O)(=O)c2ccc(N3CCCCC3)cc2)cc1
IC50 (Trypanosoma cruzi [1]): 110 µM

CN1CCN(c2ccc(S(=O)(=O)NCc3ccc(-c4nc(-c5cccnc5)no4)cc3)cc2)CC1
IC50 (HEK-293T): 42 µM
IC50 (Leishmania donovani): 49 µM
IC50 (Trypanosoma cruzi [1]): 1.2 µM
solubility kinetic [3]: 25 to 50 µg/mL (≈ 51 to 102 µM)
IC50 (Plasmodium falciparum): 5.8 µM
IC50 [4]: > 50 µM
CLint ([6]; microsomes, 1 h): 535 µL/min/mg
IC50 (U2OS): 28 µM
CLint [8]: 677 µL/min/mg
IC50 [9]: 3.4 µM
logD [11]: 4.1
IC50 (Toxoplasma gondii): 21 µM
IC50 (HFF): > 50 µM

CN1CCN(c2ccc(S(=O)(=O)NC[C@H]3CC[C@H](C(=O)Nc4cccnc4)CC3)cc2)CC1
IC50 (Trypanosoma cruzi [1]): 120 µM
